The target in this test is T1, dihydrolipoamide acyltransferase (DlaT) (Mycobacterium tuberculosis, UniProt P9WIS7).
T1 sequence (P9WIS7 1-553): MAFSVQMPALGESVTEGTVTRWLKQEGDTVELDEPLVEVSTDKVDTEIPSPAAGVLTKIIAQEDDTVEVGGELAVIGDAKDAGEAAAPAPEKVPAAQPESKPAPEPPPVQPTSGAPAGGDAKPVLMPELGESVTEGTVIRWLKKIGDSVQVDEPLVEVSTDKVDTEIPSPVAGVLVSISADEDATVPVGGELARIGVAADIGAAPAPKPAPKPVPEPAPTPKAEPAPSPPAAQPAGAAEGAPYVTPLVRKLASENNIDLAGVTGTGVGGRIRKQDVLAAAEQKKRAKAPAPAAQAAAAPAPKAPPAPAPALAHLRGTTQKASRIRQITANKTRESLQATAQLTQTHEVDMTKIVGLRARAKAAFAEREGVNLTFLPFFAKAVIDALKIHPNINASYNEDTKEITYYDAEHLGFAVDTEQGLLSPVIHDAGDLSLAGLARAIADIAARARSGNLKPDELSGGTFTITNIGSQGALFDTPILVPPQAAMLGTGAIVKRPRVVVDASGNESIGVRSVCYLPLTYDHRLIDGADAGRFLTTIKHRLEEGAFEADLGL
Nature of the test: DlaT inhibition (Dlat IC50); DTNB peroxidase assay with Lpd, DlaT and AhpD. Particulars: Dlat IC50 category. The test is classed as biochemical.
In general, IC50 refers to the concentration that inhibits the measured activity by half. High values mean a need for much substance, low ones inhibition by little substance. `Cc1ccc(-c2ccc(C=C3SC(=S)N(Nc4ccccc4C(=O)O)C3=O)o2)cc1` [Compound D13, 2-{4-oxo-2-thioxo-5-[1-(5-p-tolyl-furan-2-yl)-methylidene]-thiazolidin-3-ylamino}-benzoic acid] returned an IC50 below 10 µM.

Consider `COc1ccc(-c2ccc(C=C3SC(=S)N(Nc4ccccc4C(=O)O)C3=O)o2)cc1` [Compound D14, 2-{5-[1-[5-(4-methoxy-phenyl)-furan-2-yl]-methylidene]-4-oxo-2-thioxo-thiazolidin-3-ylamino}-benzoic acid], for which the IC50 was below 10 µM.

`Cc1ccccc1-c1cccc(C=C2SC(=S)N(Nc3ccccc3C(=O)O)C2=O)n1` [Compound D15, 2-[4-Oxo-2-thioxo-5-(6-o-tolyl-pyridin-2-ylmethylene)-thiazolidin-3-ylamino]-benzoic acid] returned an IC50 of 11 to 40 µM.

For `O=C(O)c1cccc(NN2C(=O)C(=Cc3ccc(-c4ccccc4Cl)o3)SC2=S)c1` [Compound D16, 3-{5-[1-[5-(2-chloro-phenyl)-furan-2-yl]-methylidene]-4-oxo-2-thioxo-thiazolidin-3-ylamino}-benzoic acid], the IC50 is below 10 µM.

`O=C(O)c1cccc(NN2C(=O)C(=Cc3ccc(-c4cccc(C(F)(F)F)c4)o3)SC2=S)c1` [Compound D17, 3-{5-[1-[5-(3-trifluoromethyl-phenyl)-furan-2-yl]-methylidene]-4-oxo-2-thioxo-thiazolidin-3-ylamino}-benzoic acid] displayed an IC50 below 10 µM.

`O=C(O)c1cccc(NN2C(=O)C(=Cc3ccc(-c4ccc(Cl)cc4)o3)SC2=S)c1` [Compound D18, 3-{5-[1-[5-(4-chloro-phenyl)-furan-2-yl]-methylidene]-4-oxo-2-thioxo-thiazolidin-3-ylamino}-benzoic acid] showed an IC50 below 10 µM.

As for `COc1ccc(-c2ccc(C=C3SC(=S)N(Nc4ccccc4C(=O)O)C3=O)o2)c(OC)c1` [Compound D19, 2-{5-[1-[5-(2,4-dimethoxy-phenyl)-furan-2-yl]-methylidene]-4-oxo-2-thioxo-thiazolidin-3-ylamino}-benzoic acid], the IC50 was below 10 µM.

On to `O=C(O)c1ccc(NN2C(=O)C(=Cc3ccc(-c4ccccc4Cl)o3)SC2=S)cc1` [Compound D20, 4-{5-[5-(2-Chloro-phenyl)-furan-2-ylmethylene]-4-oxo-2-thioxo-thiazolidin-3-ylamino}-benzoic acid], for which the IC50 was 11 to 40 µM.

For `O=C(O)c1ccc(NN2C(=O)C(=Cc3ccc(-c4ccc(Cl)cc4)o3)SC2=S)cc1` [Compound D21, 4-{5-[5-(4-Chloro-phenyl)-furan-2-ylmethylene]-4-oxo-2-thioxo-thiazolidin-3-ylamino}-benzoic acid], the IC50 was below 10 µM.

`O=C(O)c1ccccc1NN1C(=O)C(=Cc2ccc(-c3ccc4[nH]ccc4c3)o2)SC1=S` [Compound D22, 2-{5-[5-(1H-Indol-5-yl)-furan-2-ylmethylene]-4-oxo-2-thioxo-thiazolidin-3-ylamino}-benzoic acid] came in with an IC50 below 10 µM.

The compound `Cc1cc(Cl)ccc1-c1ccc(C=C2SC(=S)N(Nc3ccccc3C(=O)O)C2=O)o1` [Compound D23, 2-{5-[1-[5-(4-chloro-2-methyl-phenyl)-furan-2-yl]-methylidene]-4-oxo-2-thioxo-thiazolidin-3-ylamino}-benzoic acid] showed a 50% inhibitory concentration (IC50) below 10 µM.

Compound `Cc1cccc(C)c1-c1ccc(C=C2SC(=S)N(Nc3ccccc3C(=O)O)C2=O)o1` [Compound D24, 2-{5-[5-(2,6-Dimethyl-phenyl)-furan-2-ylmethylene]-4-oxo-2-thioxo-thiazolidin-3-ylamino}-benzoic acid] registered a concentration for half-maximal inhibition (IC50) below 10 µM.

Regarding `COc1cc(F)ccc1-c1ccc(C=C2SC(=S)N(Nc3ccccc3C(=O)O)C2=O)o1` [Compound D25, 2-{5-[1-[5-(4-fluoro-2-methoxy-phenyl)-furan-2-yl]-methylidene]-4-oxo-2-thioxo-thiazolidin-3-ylamino}-benzoic acid], the 50% inhibitory concentration (IC50) was below 10 µM.

As for `COc1ccc(-c2ccc(C=C3SC(=S)N(Nc4ccccc4C(=O)O)C3=O)o2)cc1F` [Compound D26, 2-{5-[1-[5-(3-fluoro-4-methoxy-phenyl)-furan-2-yl]-methylidene]-4-oxo-2-thioxo-thiazolidin-3-ylamino}-benzoic acid], the IC50 is below 10 µM.

For the compound `O=C(O)c1ccccc1NN1C(=O)C(=Cc2ccc(-c3ccccc3OCc3ccccc3)o2)SC1=S` [Compound D27, 2-{5-[1-[5-(2-benzyloxy-phenyl)-furan-2-yl]-methylidene]-4-oxo-2-thioxo-thiazolidin-3-ylamino}-benzoic acid], the IC50 was in the range of 11 to 40 µM.

Consider `Cc1cc(C)c(-c2ccc(C=C3SC(=S)N(Nc4ccccc4C(=O)O)C3=O)o2)c(C)c1` [Compound D28, 2-{4-Oxo-2-thioxo-5-[5-(2,4,6-trimethyl-phenyl)-furan-2-ylmethylene]-thiazolidin-3-ylamino}-benzoic acid], for which the IC50 is below 10 µM.

`Cc1cc(N(C)C)ccc1-c1ccc(C=C2SC(=S)N(Nc3ccccc3C(=O)O)C2=O)o1` [Compound D29, 2-{5-[5-(4-Dimethylamino-2-methyl-phenyl)-furan-2-ylmethylene]-4-oxo-2-thioxo-thiazolidin-3-ylamino}-benzoic acid] yielded an IC50 of 11 to 40 µM.

Compound `CSc1ccccc1-c1ccc(C=C2SC(=S)N(Nc3ccccc3C(=O)O)C2=O)o1` [Compound D30, 2-{5-[1-[5-(2-methylsulfanyl-phenyl)-furan-2-yl]-methylidene]-4-oxo-2-thioxo-thiazolidin-3-ylamino}-benzoic acid] showed an IC50 below 10 µM.

For the compound `CN(C)c1ccc(-c2ccc(C=C3SC(=S)N(Nc4ccccc4C(=O)O)C3=O)o2)cc1` [Compound D31, 2-{5-[5-(4-Dimethylamino-phenyl)-furan-2-ylmethylene]-4-oxo-2-thioxo-thiazolidin-3-ylamino}-benzoic acid], the IC50 was 11 to 40 µM.

Compound `O=C(O)c1ccccc1NN1C(=O)C(=Cc2ccc(-c3ccccc3Oc3ccccc3)o2)SC1=S` [Compound D33, 2-{4-oxo-5-[1-[5-(2-phenoxy-phenyl)-furan-2-yl]-methylidene]-2-thioxo-thiazolidin-3-ylamino}-benzoic acid] displayed an IC50 below 10 µM.

`Cc1ccccc1-c1ccc(C=C2SC(=S)N(Nc3ccccc3C(=O)O)C2=O)s1` [Compound D34, 2-{4-oxo-2-thioxo-5-[1-(5-o-tolyl-thiophen-2-yl)-methylidene]-thiazolidin-3-ylamino}-benzoic acid] displayed a half-inhibitory concentration (IC50) below 10 µM.

Take `O=C(O)c1ccccc1NN1C(=O)C(=Cc2ccc(-c3ccccc3Cl)s2)SC1=S` [Compound D35, 2-{4-oxo-2-thioxo-5-[1-(5-2-chloro-thiophen-2-yl)-methylidene]-thiazolidin-3-ylamino}-benzoic acid]: the half-maximal inhibitory concentration (IC50) is below 10 µM.

Compound `O=C(O)c1ccccc1NN1C(=O)C(=Cc2ccc(-c3ccccc3F)s2)SC1=S` [Compound D36, 2-{4-oxo-2-thioxo-5-[1-(5-2-fluoro-thiophen-2-yl)-methylidene]-thiazolidin-3-ylamino}-benzoic acid] registered a 50% inhibitory concentration (IC50) below 10 µM.

In the case of `O=C(O)c1ccc(NN2C(=O)C(=Cc3ccc(-c4cccc(C(F)(F)F)c4)o3)SC2=S)cc1` [Compound D37, 4-{4-oxo-2-thioxo-5-[5-(3-trifluoromethyl-phenyl)-furan-2-ylmethylene]-thiazolidin-3-ylamino}-benzoic acid], the 50% inhibitory concentration (IC50) was below 10 µM.

In turn, `CCc1ccc(-c2ccc(C=C3SC(=S)N(Nc4ccccc4C(=O)O)C3=O)o2)cc1` [Compound D38, 2-{5-[1-[5-(4-ethyl-phenyl)-furan-2-yl]-methylidene]-4-oxo-2-thioxo-thiazolidin-3-ylamino}-benzoic acid] displayed a half-inhibitory concentration (IC50) below 10 µM.

As for `O=C(O)c1ccccc1NN1C(=O)C(=Cc2ccc(-c3ccc(C(F)(F)F)cc3)o2)SC1=S` [Compound D39, 2-{4-oxo-2-thioxo-5-[1-[5-(4-trifluoromethyl-phenyl)-furan-2-yl]-methylidene]-thiazolidin-3-ylamino}-benzoic acid], the IC50 was below 10 µM.

For the compound `O=C(O)c1ccccc1NN1C(=O)C(=Cc2ccc(-c3cccc(-c4ccccc4)c3)o2)SC1=S` [Compound D40, 2-{5-[1-(5-biphenyl-3-yl-furan-2-yl)-methylidene]-4-oxo-2-thioxo-thiazolidin-3-ylamino}-benzoic acid], the 50% inhibitory concentration (IC50) is below 10 µM.

`CC(=O)Nc1ccc(-c2ccc(C=C3SC(=S)N(Nc4ccccc4C(=O)O)C3=O)o2)cc1` [Compound D41, 2-{5-[5-(4-acetylamino-phenyl)-furan-2-ylmethylene]-4-oxo-2-thioxo-thiazolidin-3-ylamino}-benzoic acid]: the 50% inhibitory concentration (IC50) is below 10 µM.

Turning to `CC(=O)c1ccc(-c2ccc(C=C3SC(=S)N(Nc4ccccc4C(=O)O)C3=O)o2)cc1` [Compound D42, 2-{5-[1-[5-(4-acetyl-phenyl)-furan-2-yl]-methylidene]-4-oxo-2-thioxo-thiazolidin-3-ylamino}-benzoic acid], the IC50 is below 10 µM.

The compound `O=C(O)c1ccccc1NN1C(=O)C(=Cc2ccc(-c3ccccc3F)o2)SC1=S` [Compound D43, 2-{5-[1-[5-(2-fluoro-phenyl)-furan-2-yl]-methylidene]-4-oxo-2-thioxo-thiazolidin-3-ylamino}-benzoic acid] showed a half-maximal inhibitory concentration (IC50) below 10 µM.

`O=C(O)c1ccccc1NN1C(=O)C(=Cc2ccc(-c3cccc(CO)c3)o2)SC1=S` [Compound D44, 2-{5-[1-[5-(3-hydroxymethyl-phenyl)-furan-2-yl]-methylidene]-4-oxo-2-thioxo-thiazolidin-3-ylamino}-benzoic acid] displayed an IC50 below 10 µM.

The values above are taken from patent US8338465B2, “Cyclic carboxylic acid rhodanine derivatives for the treatment and prevention of tuberculosis” (priority 2006, dated 2012).
